Target: T1, Gamma-aminobutyric acid receptor subunit alpha-1/beta-2/gamma-2 (Homo sapiens, UniProt P14867+P18507+P47870)
T1 sequence (P14867 whole entry): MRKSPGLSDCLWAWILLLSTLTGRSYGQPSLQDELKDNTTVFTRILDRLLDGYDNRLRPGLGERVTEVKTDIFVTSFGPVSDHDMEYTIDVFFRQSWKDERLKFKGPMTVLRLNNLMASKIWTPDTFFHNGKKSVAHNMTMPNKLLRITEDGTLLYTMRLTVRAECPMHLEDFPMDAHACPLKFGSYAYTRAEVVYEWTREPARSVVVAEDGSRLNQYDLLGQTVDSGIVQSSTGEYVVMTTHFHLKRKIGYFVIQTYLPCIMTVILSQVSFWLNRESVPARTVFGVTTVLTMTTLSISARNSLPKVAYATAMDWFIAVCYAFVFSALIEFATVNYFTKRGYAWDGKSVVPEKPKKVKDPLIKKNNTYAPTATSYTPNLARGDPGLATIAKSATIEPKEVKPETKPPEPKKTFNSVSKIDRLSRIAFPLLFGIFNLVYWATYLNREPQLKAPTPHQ
T1 sequence (P18507 whole entry): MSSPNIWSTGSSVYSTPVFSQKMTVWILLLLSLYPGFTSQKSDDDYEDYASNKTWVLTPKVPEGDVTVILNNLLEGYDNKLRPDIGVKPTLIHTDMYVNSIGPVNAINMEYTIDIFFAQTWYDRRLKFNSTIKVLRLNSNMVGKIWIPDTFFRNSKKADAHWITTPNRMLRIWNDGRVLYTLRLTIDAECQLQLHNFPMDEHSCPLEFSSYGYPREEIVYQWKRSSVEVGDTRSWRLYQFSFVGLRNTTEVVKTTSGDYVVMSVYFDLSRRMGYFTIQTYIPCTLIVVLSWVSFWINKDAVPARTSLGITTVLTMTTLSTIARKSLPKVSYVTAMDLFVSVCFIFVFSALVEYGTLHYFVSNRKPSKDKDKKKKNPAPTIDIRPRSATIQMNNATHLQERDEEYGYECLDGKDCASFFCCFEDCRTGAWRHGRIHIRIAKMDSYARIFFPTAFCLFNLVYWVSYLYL
T1 sequence (P47870 whole entry): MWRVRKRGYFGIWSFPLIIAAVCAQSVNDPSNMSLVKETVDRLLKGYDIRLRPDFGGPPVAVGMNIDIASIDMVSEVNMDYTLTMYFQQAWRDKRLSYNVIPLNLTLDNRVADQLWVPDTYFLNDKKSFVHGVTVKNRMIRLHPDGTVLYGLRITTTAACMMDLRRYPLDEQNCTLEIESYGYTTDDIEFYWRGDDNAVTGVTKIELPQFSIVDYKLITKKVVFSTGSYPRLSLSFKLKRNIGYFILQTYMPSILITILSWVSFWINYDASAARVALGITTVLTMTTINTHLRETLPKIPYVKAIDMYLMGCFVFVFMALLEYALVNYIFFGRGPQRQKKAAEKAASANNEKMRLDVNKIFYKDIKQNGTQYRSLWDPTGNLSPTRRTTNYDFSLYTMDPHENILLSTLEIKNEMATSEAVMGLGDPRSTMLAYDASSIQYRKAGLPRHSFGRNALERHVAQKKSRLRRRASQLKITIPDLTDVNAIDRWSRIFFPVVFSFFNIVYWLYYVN
Assay: Agonist activity at human GABA-A alpha-1-beta-2-gamma-2 receptor expressed in Xenopus laevis

## CCOC(=O)c1cncn1[C@H](C)c1ccc(C2(C(F)(F)F)N=N2)cc1
  EC50: 30 µM

## CCOC(=O)c1cncn1[C@@H](C)c1ccc(C2(C(F)(F)F)N=N2)cc1
  EC50: 6.4 µM

— BindingDB's records for doi:10.1021/jm100498u (Massachusetts General Hospital, 2010)
